We go through 5 molecules from patent US5639735A, “Antitumor antibiotic compounds: hayumicins and analogs thereof” (Bristol-Myers Squibb Company, priority 1994, dated 1997).

Data set [1] has as its system bacteria (especially gram positive bacteria). The data set can be described thus: Antibiotic activity (general statement). Type of data set: cell-based. Conditions: inhibiting the growth of bacteria.
In a further data set the test system is tumors. The data set is described as follows: Antitumor activity (general statement). Conditions: no test described.
Another data set concerns Micrococcus luteus. The data set is described as follows: Agar dilution MIC. The format is cell-based. Conditions: A No. 9852, 37° C., 18 hours. On the procedure:
(§1) The following methodology was used to determine the minimum inhibitory concentration (hereinafter referred to as the "MIC") of the compounds of this invention. The test organisms were grown in 20 mL of Antibiotic Assay Broth (Difco) by inoculating the broth (in tubes) with a loopful of the organism from a BHI (Difco) agar slant. The inoculated tubes were incubated at 37° C. for 18 to 24 hours. These cultures were assumed to contain 10^9 colony forming units (CFU) per mL. The cultures were diluted 1:100 to give a final inoculum level of 10^7 CFU per mL; dilutions were made with Yeast Beef Broth (Difco). The antibiotics Hayumicin A and Hayumicin B of the present invention were dissolved in suitable diluents at a concentration of 1000 μg/mL. Two-fold dilutions were made in Yeast Beef Broth (Difco), resulting in a range from 1000 μg/mL to 0.5 μg/mL. A 1.5 mL portion of each dilution was placed into individual petri dishes to which 13.5 mL of K-10 agar was added. The composition of K-10 agar is:
(§2) The final drug concentration in agar of Hayumicin A or Hayumicin B ranged from […] to 0.05 μg/mL. Organism growth control plates containing agar only were prepared and inoculated before and after the test plates. The organisms were applied to the surface of each plate so that each contained a final inoculum of 10^5 CFU. The plates were incubated at 37° C. for 18 hours and the MICs determined. The MIC is the lowest concentration of compound inhibiting growth of the organism.
Background: Agar dilution tests growth on a series of plates holding different concentrations.

The next data set relates to Bacillus subtilis. The data set is described as follows: Agar dilution MIC. Type of data set: cell-based. Conditions: A No. 9506A, 37° C., 18 hours. On the procedure: as §1, §2
A further data set has as its system Klebsiella oxytoca. The data set can be described thus: Agar dilution MIC. Type of data set: cell-based. Conditions: A No. 203454, 37° C., 18 hours. As to the method: as §1, §2
The subject of a further data set is Streptococcus agalactiae. The data set can be described thus: Agar dilution MIC. Type of data set: cell-based. The settings on record: A No. 22567, 37° C., 18 hours. As to the method:
as §1, §2

A further data set deals with Klebsiella pneumoniae. The data set is described as follows: Agar dilution MIC. The settings on record: A No. 9664, 37° C., 18 hours. The format is cell-based. On the procedure:
as §1, §2

Another data set deals with Proteus mirabilis. The data set is described as follows: Agar dilution MIC. Type of data set: cell-based. The settings on record: A No. 9900, 37° C., 18 hours. As to the method: as §1, §2
The next data set deals with Escherichia coli. The data set is described as follows: Agar dilution MIC. Type of data set: cell-based. The settings on record: 18 h. On the procedure:
as §1, §2

For a further data set, the system named is Streptococcus pneumoniae. The data set can be described thus: Agar dilution MIC. The format is cell-based. Conditions: A No. 9585, 37° C., 18 hours. As to the method:
as §1, §2

Another data set concerns Staphylococcus aureus. The data set can be described thus: Agar dilution MIC. The format is cell-based. The settings on record: 18 h. As to the method:
as §1, §2

The next data set deals with Streptococcus pyogenes. The data set can be described thus: Agar dilution MIC. The settings on record: A No. 9604, 37° C., 18 hours. The format is cell-based. On the procedure:
as §1, §2

A further data set relates to Pseudomanas aeruginosa. The data set can be described thus: Agar dilution MIC. The format is cell-based. The settings on record: A No. 21508, 37° C., 18 hours. On the procedure: as §1, §2

In brackets after ≈: the same amount, converted by molar mass. Bounds are passed on as bounds.

For the molecule `CO[C@@H]1[C@H](O)[C@@H](O)[C@@H](O[C@H]2[C@H](Oc3cccc4c(=O)c5c(N)c(=O)c6ccc(C)c7c(=O)oc(c-5c67)c34)O[C@H](C)[C@H](O)[C@@H]2O)O[C@@H]1C` [Hayumicin C1, 5-amino-10-[[6-deoxy-2-O -(6-deoxy-4-O-methyl-α-D-galactopyranosyl)-β-D -galactopyranosyl]oxy]-1-methyl-4H -benzo[h]naphtho[8,1,2-cde][1]benzopyran-4,6,12-trione], the antibiotic activity entry in data set [1] is given as “possess antibiotic activity”. Moreover, in the data set “Solubility”, the solubility in chloroform result is listed as “slightly soluble”, the solubility in dimethylsulfoxide result is “soluble”, the solubility in ether entry was “practically insoluble” and the solubility in methanol result was “slightly soluble”. For the same molecule, in the data set “Solubility”, the solubility in n-hexane entry was “practically insoluble”, the solubility in pyridine result is “soluble” and the solubility in water result is recorded as “practically insoluble”. Moreover, the antitumor activity entry in the data set on tumors is “antitumor activity”.

In the case of `CO[C@H]1[C@@H](O)[C@@H](C)O[C@H](O[C@H]2[C@H](Oc3cccc4c(=O)c5c(N)c(=O)c6ccc(C)c7c(=O)oc(c-5c67)c34)O[C@H](C)[C@H](O)[C@@H]2O)[C@@H]1O` [Hayumicin C2, B-amino-10-[[6-deoxy-2-O -(6-deoxy-3-O-methyl-α-D-galactopyranosyl)-β-D -galactopyranosyl]oxy]-1-methyl-4H -benzo[h]naphtho[8,1,2-cde][1]benzopyran-4,6,12-trione], in data set [1], the antibiotic activity result is “possess antibiotic activity”. In the data set “Solubility”, the solubility in chloroform result is listed as “slightly soluble”, the solubility in dimethylsulfoxide entry is recorded as “soluble”, the solubility in ether result is recorded as “practically insoluble” and the solubility in methanol entry is given as “slightly soluble”. Besides, in “Solubility”, the solubility in n-hexane entry was “practically insoluble”, the solubility in pyridine entry is “soluble” and the solubility in water result is on record as “practically insoluble”. Further, in the data set on tumors, the antitumor activity entry is reported as “antitumor activity”.

Usually MIC stands for the lowest concentration found to suppress growth. Regarding `CO[C@@H]1[C@@H](O)[C@@H](O[C@H]2[C@H](Oc3cccc4c(=O)c5c(O)c(=O)c6ccc(C)c7c(=O)oc(c-5c67)c34)O[C@H](C)[C@H](O)[C@@H]2O)O[C@H](C)[C@@H]1OC` [Hayumicin A, 10-[[6-deoxy-2-O-(6-deoxy-3,4-di-O-methyl-α-D-galactopyranosyl)-β-D -galactopyranosyl]oxy]-5-hydroxy-1-methyl-4H -benzo[h]naphtho[8,1,2-cde][1]benzopyran-4,6,12-trione], the antibiotic activity result in data set [1] is “possess antibiotic activity”. For the same molecule, the MIC against Micrococcus luteus is 1 µg/mL (≈ 1.5 µM); in the data set with Bacillus subtilis it was 32 µg/mL (≈ 48 µM); against Klebsiella oxytoca it was over 128 µg/mL; against Streptococcus agalactiae it was 8 µg/mL (≈ 12 µM); with Klebsiella pneumoniae, over 128 µg/mL; against Proteus mirabilis, over 128 µg/mL. Further, the MIC was over 128 µg/mL against Escherichia coli (A No. 20697, 37° C.); 16 µg/mL (≈ 24 µM) in the data set with Escherichia coli (A No. 22292, 37° C.); over 128 µg/mL in the data set on Escherichia coli (A No. 28290, 37° C.); 16 µg/mL (≈ 24 µM) against Streptococcus pneumoniae; 64 µg/mL (≈ 96 µM) in the data set on Staphylococcus aureus (A No. 9537, 37° C.); 128 µg/mL (≈ 192 µM) in the data set on Staphylococcus aureus (A No. 9606, 37° C.). The MIC is 128 µg/mL (≈ 192 µM) with Staphylococcus aureus (A No. 24227, 37° C.); 8 µg/mL (≈ 12 µM) in the data set on Streptococcus pyogenes; over 128 µg/mL in the data set on Pseudomanas aeruginosa. Moreover, in the data set “Solubility”, the solubility in chloroform entry is reported as “slightly soluble”. Besides, the solubility in dimethylsulfoxide entry in “Solubility” is listed as “readily soluble”. Further, in the data set “Solubility”, the solubility in methanol result is recorded as “slightly soluble”. For the same molecule, the solubility in n-hexane entry in the data set “Solubility” was “insoluble”. Further, the solubility in pyridine result in “Solubility” is on record as “readily soluble”. The solubility in water entry in “Solubility” is recorded as “insoluble”. In addition, the antitumor activity result in the data set with tumors was “antitumor activity”.

As to `Cc1ccc2c(=O)c(N)c3c(=O)c4cccc(O[C@@H]5O[C@H](C)[C@H](O)[C@H](O)[C@H]5O[C@H]5O[C@H](C)[C@H](O)[C@H](O)[C@H]5O)c4c4oc(=O)c1c2c4-3` [Hayumicin D, 5-amino-10-[[6-deoxy-2-O -(6-deoxy-α-D-galactopyranosyl)-β-D -galactopyranosyl]oxy]-1-methyl-4H -benzo[h]naphtho[8,1,2-cde][1]benzopyran-4,6,12-trione], the antibiotic activity result in [1] is “possess antibiotic activity”. Also, in the data set “Solubility”, the solubility in chloroform entry is “slightly soluble”, the solubility in dimethylsulfoxide entry is listed as “soluble”, the solubility in ether result is “practically insoluble” and the solubility in methanol result is recorded as “slightly soluble”. In the data set “Solubility”, the solubility in n-hexane result is on record as “practically insoluble”, the solubility in pyridine result is on record as “soluble” and the solubility in water result is reported as “practically insoluble”. The antitumor activity entry in the data set with tumors was “antitumor activity”.

`CO[C@@H]1[C@@H](O)[C@@H](O[C@H]2[C@H](Oc3cccc4c(=O)c5c(N)c(=O)c6ccc(C)c7c(=O)oc(c-5c67)c34)O[C@H](C)[C@H](O)[C@@H]2O)O[C@H](C)[C@@H]1OC` [Hayumicin B, 5-amino-10-[[6-deoxy-2-O -(6-deoxy-3,4-di-O-methyl-α-D-galactopyranosyl)-β-D -galactopyranosyl]oxy]-1-methyl-4H -benzo[h]naphtho[8,1,2-cde][1]benzopyran-4,6,12-trione]: the antibiotic activity entry in data set [1] was “possess antibiotic activity”. The MIC in the data set with Micrococcus luteus was 1 µg/mL (≈ 1.5 µM); in the data set with Bacillus subtilis it was 4 µg/mL (≈ 6.01 µM); in the data set on Klebsiella oxytoca, over 128 µg/mL; with Streptococcus agalactiae, 8 µg/mL (≈ 12 µM); against Klebsiella pneumoniae, over 128 µg/mL; in the data set on Proteus mirabilis it was over 128 µg/mL. Further, the MIC was over 128 µg/mL against Escherichia coli (A No. 20697, 37° C.); 128 µg/mL (≈ 192 µM) in the data set on Escherichia coli (A No. 22292, 37° C.); over 128 µg/mL in the data set with Escherichia coli (A No. 28290, 37° C.); 8 µg/mL (≈ 12 µM) in the data set with Streptococcus pneumoniae; 64 µg/mL (≈ 96.1 µM) with Staphylococcus aureus (A No. 9537, 37° C.); 128 µg/mL (≈ 192 µM) against Staphylococcus aureus (A No. 9606, 37° C.). Moreover, the MIC against Staphylococcus aureus (A No. 24227, 37° C.) is 128 µg/mL (≈ 192 µM); in the data set on Streptococcus pyogenes it was 8 µg/mL (≈ 12 µM); in the data set on Pseudomanas aeruginosa, over 128 µg/mL. Further, the solubility in chloroform entry in “Solubility” is recorded as “slightly soluble”. Also, the solubility in dimethylsulfoxide result in “Solubility” was “readily soluble”. Moreover, the solubility in methanol result in the data set “Solubility” is “slightly soluble”. For the same molecule, the solubility in n-hexane result in “Solubility” is given as “insoluble”. The solubility in pyridine result in the data set “Solubility” is recorded as “readily soluble”. Further, in the data set “Solubility”, the solubility in water entry was “insoluble”. In the data set with tumors, the antitumor activity result is recorded as “antitumor activity”.
